The values below come from US8765748B2, “Indazolyl, benzimidazolyl, benzotriazolyl substituted indolinone derivatives as kinase inhibitors useful in the treatment of cancer” (University Health Network, priority 2007, dated 2014).

Molecules are shown by their SMILES.

By IC50 is commonly meant the concentration needed to halve the response being measured. What is called inhibition is the percentage by which the read-out fell short of the control.

What all share (format): biochemical
Experiment [1] has as its target T1, human PLK4 (Homo sapiens, UniProt O00444).
T1 construct: amino terminal GST fusion of residues 1-391 of human PLK4; made in house; host or cells: E. coli
T1 sequence (O00444 1-391): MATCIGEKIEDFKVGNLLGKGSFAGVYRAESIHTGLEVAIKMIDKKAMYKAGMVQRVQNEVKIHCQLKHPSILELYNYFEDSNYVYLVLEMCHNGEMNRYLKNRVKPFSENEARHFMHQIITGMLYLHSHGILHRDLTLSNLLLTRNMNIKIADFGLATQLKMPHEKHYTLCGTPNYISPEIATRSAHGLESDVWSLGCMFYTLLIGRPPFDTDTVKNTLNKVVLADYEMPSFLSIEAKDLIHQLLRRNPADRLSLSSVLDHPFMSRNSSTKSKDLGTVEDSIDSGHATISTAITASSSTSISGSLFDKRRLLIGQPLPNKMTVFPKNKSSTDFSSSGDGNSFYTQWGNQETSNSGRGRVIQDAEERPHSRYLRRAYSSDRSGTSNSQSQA
Put plainly: PLK4 Inhibition Assay (indirect ELISA). The settings on record: 15 μM ATP, 4 nM GST-PLK4; read-out: PLK4 IC50 Ranges. The procedure: The protein was purified from clarified cell extracts after induction at 15° C. overnight using glutathione sepharose, gel permeation chromatography, and ion exchange (Resource Q). The resulting protein was dephosphorylated with lambda phosphatase (NEB cat #P0753), and resolved from the phosphatase using gluthione sepharose. The dephosphorylated GST-PLK4 was stored in aliquots at −80° C. until use. PLK4 activity was measured using an indirect ELISA detection system. […] Compounds were pre-incubated in the presence of enzyme for 15 minutes prior to addition of ATP and the activity remaining quantified using the above described activity assay. […] The IC50 value was determined using a non-linear 4 point logistic curve fit (XLfit4, IDBS) with the formula; (A+(B/(1+((x/C)^D)))), where A=background value, B=range, C=inflection point, D=curve fit parameter.
Background: In an ELISA, binding on a coated surface is turned into a signal by an enzyme label.

For experiment [2], the target named is T2, Aurora A (Homo sapiens, UniProt O14965).
T2 construct: purchased Invitrogen PV3612
T2 sequence (O14965 1-403): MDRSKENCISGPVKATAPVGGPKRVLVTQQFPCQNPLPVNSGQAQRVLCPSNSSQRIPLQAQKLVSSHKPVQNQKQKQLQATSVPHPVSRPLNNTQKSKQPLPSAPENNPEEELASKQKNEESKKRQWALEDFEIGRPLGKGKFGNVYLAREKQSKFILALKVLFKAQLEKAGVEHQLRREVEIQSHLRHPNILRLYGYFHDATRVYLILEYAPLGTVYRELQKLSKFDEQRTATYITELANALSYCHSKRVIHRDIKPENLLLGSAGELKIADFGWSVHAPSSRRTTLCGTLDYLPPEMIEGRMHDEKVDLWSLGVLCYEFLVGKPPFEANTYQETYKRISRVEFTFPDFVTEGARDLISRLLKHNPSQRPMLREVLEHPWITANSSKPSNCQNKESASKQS
Put plainly: Aurora A Inhibition Assay (Z-Lyte). Particulars: for inhibition at 10 µM: 10 μM compound, read-out: Aurora A relative inhibition percentage at a dose of 10 μM; for IC50: 20 μM ATP, 12 nM Aurora A, read-out: Aurora A IC50 Ranges; for inhibition at 1 µM: 1 μM compound, read-out: Aurora A relative inhibition percentage at a dose of 1 μM. The procedure: Aurora A inhibition was determined using the Z-Lyte assay kit from Invitrogen. The assay was performed using the recommended manufacturer's instructions with 20 μM ATP and 12 nM Aurora A (Invitrogen cat #PV3612). The % inhibition values were determined according to the manufacturer's directions and IC50 values were obtained using a non-linear 4 point logistic curve fit (XLfit4, IDBS)

Experiment [3] deals with T3, Aurora B (Homo sapiens, UniProt Q96GD4).
T3 construct: purchased Invitrogen PV3970
Put plainly: Aurora B Inhibition Assay (Z-Lyte). Particulars: 128 μM ATP, 28 nM Aurora B; read-out: Aurora B IC50 Ranges. The procedure: Aurora B inhibition was determined using the Z-Lyte assay kit from Invitrogen. The assay was performed using the recommended manufacturer's instructions with 128 μM ATP and 28 nM Aurora B (Invitrogen cat #PV3970). The % inhibition values were determined according to the manufacturer's directions and IC50 values were obtained using a non-linear 4 point logistic curve fit (XLfit4, IDBS)

Experiment [4] addresses T4, PLK2 (Homo sapiens, UniProt Q9NYY3).
T4 construct: purchased Invitrogen PV4204
The experiment is described as follows: PLK2 Inhibition Assay (Z-Lyte). The settings on record: 10 μM compound; read-out: PLK2 relative inhibition percentage at a dose of 10 μM. The procedure:
PLK2 inhibition was determined using the Z-Lyte assay kit from Invitrogen (cat #PV3802). The assay was performed using the recommended manufacturer's instructions with 60 μM ATP and 133 nM PLK2 (Invitrogen cat #PV4204). The % inhibition values were determined according to the manufacturer's directions and IC50 values were obtained using a non-linear 4 point logistic curve fit (XLfit4, IDBS)

The target in experiment [5] is T5, PLK1 (Homo sapiens, UniProt P53350).
T5 construct: purchased Invitrogen PV3501
The experiment is described as follows: PLK1 Inhibition Assay (Z-Lyte). The settings on record: 10 μM compound; read-out: PLK1 relative inhibition percentage at a dose of 10 μM. As to the method: PLK1 inhibition was determined using the Z-Lyte assay kit from Invitrogen (cat #PV3802). […] The % inhibition values were determined according to the manufacturer's directions and IC50 values were obtained using a non-linear 4 point logistic curve fit (XLfit4, IDBS)

T3 sequence (Q96GD4 whole entry): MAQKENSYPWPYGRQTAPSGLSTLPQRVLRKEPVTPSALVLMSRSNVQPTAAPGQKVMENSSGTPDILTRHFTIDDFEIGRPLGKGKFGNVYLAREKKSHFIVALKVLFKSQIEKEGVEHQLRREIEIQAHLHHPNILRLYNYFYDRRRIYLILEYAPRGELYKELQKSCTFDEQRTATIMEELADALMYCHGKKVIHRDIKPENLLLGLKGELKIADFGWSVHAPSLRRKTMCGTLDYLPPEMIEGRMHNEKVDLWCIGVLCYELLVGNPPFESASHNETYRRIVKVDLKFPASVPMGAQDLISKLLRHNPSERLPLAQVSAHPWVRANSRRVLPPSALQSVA
T5 sequence (P53350 whole entry): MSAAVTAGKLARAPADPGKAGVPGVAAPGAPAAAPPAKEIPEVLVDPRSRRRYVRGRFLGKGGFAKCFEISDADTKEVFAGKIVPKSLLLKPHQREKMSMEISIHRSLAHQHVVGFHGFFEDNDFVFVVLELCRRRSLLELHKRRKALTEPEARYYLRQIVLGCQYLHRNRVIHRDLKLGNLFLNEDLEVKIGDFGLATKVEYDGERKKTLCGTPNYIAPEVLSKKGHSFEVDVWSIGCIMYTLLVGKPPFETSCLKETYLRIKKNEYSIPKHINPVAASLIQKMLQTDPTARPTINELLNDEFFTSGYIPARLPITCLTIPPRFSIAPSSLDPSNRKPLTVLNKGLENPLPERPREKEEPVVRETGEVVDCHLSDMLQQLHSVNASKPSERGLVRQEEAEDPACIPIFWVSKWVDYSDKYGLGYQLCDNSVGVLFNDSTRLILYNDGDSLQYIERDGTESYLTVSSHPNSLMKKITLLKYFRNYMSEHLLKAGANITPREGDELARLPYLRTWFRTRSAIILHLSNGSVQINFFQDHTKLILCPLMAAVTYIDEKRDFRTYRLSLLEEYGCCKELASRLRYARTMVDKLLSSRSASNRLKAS
T4 sequence (Q9NYY3 whole entry): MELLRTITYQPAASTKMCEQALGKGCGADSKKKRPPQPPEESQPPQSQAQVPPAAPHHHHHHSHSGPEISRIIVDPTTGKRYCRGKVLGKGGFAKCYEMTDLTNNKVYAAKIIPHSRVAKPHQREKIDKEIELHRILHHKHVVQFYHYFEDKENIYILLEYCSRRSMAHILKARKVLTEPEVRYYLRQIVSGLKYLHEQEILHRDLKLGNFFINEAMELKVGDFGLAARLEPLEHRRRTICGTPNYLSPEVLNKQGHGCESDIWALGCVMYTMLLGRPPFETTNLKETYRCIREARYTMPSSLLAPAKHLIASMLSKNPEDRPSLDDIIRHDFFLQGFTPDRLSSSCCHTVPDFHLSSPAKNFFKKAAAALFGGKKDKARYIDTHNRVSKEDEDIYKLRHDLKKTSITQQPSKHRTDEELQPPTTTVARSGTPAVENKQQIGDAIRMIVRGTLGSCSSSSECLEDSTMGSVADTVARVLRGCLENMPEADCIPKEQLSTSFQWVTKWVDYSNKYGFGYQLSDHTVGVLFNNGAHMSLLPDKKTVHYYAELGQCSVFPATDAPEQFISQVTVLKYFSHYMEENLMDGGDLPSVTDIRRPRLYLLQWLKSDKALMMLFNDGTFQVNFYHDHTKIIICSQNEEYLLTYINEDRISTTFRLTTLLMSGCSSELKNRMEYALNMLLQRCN

For `O=C(O)/C=C/c1n[nH]c2cc(C=C3C(=O)Nc4ncccc43)ccc12` (mixture of isomers) [Example A71, (E)-3-(6-((E & Z)-(2-oxo-1H-pyrrolo[2,3-b]pyridin-3(2H)-ylidene)-methyl)-1H-indazol-3-yl)acrylic acid], the IC50 in experiment [1] and in experiment [3] was less than 5 µM in each case. The inhibition at 10 µM in experiment [2] was more than 50%.
For `N#Cc1ccc2c(c1)C(=Cc1ccc3c(/C=C/c4ccncc4)n[nH]c3c1)C(=O)N2` (mixture of isomers) [Example A128, (E and Z)-2-oxo-3-((3-((E)-2-(pyridin-4-yl)vinyl)-1H-indazol-6-yl)methylene)indoline-5-carbonitrile], the IC50 in experiment [1], in experiment [2] and in experiment [3] was less than 5 µM throughout.
As for `O=C1Nc2ccc(Cl)nc2C1=Cc1ccc2c(/C=C/c3ccncc3)n[nH]c2c1` (mixture of isomers) [Example A137, (E and Z)-5-chloro-3-((3-((E)-2-(pyridin-4-yl)vinyl)-1H-indazol-6-yl)methylene)-1H-pyrrolo[3,2-b]pyridin-2(3H)-one], the IC50 in experiment [1], in experiment [2] and in experiment [3] was less than 5 µM in each case.
Turning to `O=C1Nc2ccc(Br)cc2C1=Cc1ccc2c(/C=C/c3cccnc3)n[nH]c2c1` (mixture of isomers) [Example A139, (E and Z)-5-bromo-3-((3-((E)-2-(pyridin-3-yl)vinyl)-1H-indazol-6-yl)methylene)indolin-2-one], the IC50 in experiment [1], in experiment [2] and in experiment [3] was less than 5 µM throughout.
As for `O=C1Nc2ncc(Br)cc2C1=Cc1ccc2c(/C=C/c3cccnc3)n[nH]c2c1` (mixture of isomers) [Example A140, (E and Z)-5-bromo-3-((3-((E)-2-(pyridin-3-yl)vinyl)-1H-indazol-6-yl)methylene)-1H-pyrrolo[2,3-b]pyridin-2(3H)-one], the IC50 in experiment [1], in experiment [2] and in experiment [3] was less than 5 µM in each case.
As to `COC(=O)c1ccc(/C=C/c2n[nH]c3cc(C=C4C(=O)Nc5ccc(OC)cc54)ccc23)cc1` (mixture of isomers) [Example A142, methyl 4-((E)-2-(6-((E and Z)-(5-methoxy-2-oxoindolin-3-ylidene)methyl)-1H-indazol-3-yl)vinyl)benzoate], the IC50 in experiment [1] and in experiment [3] was less than 5 µM each time. Besides, the inhibition at 1 µM in experiment [2] was more than 50%.
As for `COC(=O)c1ccc(/C=C/c2n[nH]c3cc(C=C4C(=O)Nc5ncccc54)ccc23)cc1` (mixture of isomers) [Example A143, methyl 4-((E)-2-(6-((E and Z)-(2-oxo-1H-pyrrolo[2,3-b]pyridin-3(2H)-ylidene)methyl)-1H-indazol-3-yl)vinyl)benzoate], the IC50 in experiment [1] and in experiment [3] was less than 5 µM throughout. The inhibition at 1 µM in experiment [2] was more than 50%.
Turning to `O=C1Nc2ncccc2C1=Cc1ccc2c(/C=C/c3ccc(C(=O)O)cc3)n[nH]c2c1` (mixture of isomers) [Example A146, 4-((E)-2-(6-((E/Z)-(2-oxo-1H-pyrrolo[2,3-b]pyridin-3(2H)-ylidene)methyl)-1H-indazol-3-yl)vinyl)benzoic acid], the IC50 in experiment [1], in experiment [2] and in experiment [3] was less than 5 µM in each case.
Turning to `COc1ccc2c(c1)/C(=C\c1ccc3c(-c4ccc(N(C)C)nc4)n[nH]c3c1)C(=O)N2` [Example A116, (E)-3-((3-(6-(dimethylamino)pyridin-3-yl)-1H-indazol-6-yl)methyl-ene)-5-methoxyindolin-2-one], the inhibition at 10 µM in experiment [4] and in experiment [5] was less than 50% throughout.
`O=C1Nc2ccc(O)cc2/C1=C\c1ccc2cn[nH]c2c1` [Example A123, (E)-3-((1H-indazol-6-yl)methylene)-5-hydroxyindolin-2-one]: the IC50 in experiment [1], in experiment [2] and in experiment [3] was less than 5 µM throughout.
As for `O=C1Nc2ccc(O)cc2/C1=C\c1ccc2c(/C=C/c3ccncc3)n[nH]c2c1` [Example A124, (E)-5-hydroxy-3-((3-((E)-2-(pyridin-4-yl)vinyl)-1H-indazol-6-yl)methylene)indolin-2-one 2,2,2-trifluoroacetate], the IC50 in experiment [1], in experiment [2] and in experiment [3] was less than 5 µM in each case.
Consider `COc1ccc2c(c1)/C(=C\c1ccc3c(/C=C/C(=O)N(C)CCN(C)C)n[nH]c3c1)C(=O)N2` [Example A126, (E)-N-(2-(dimethylamino)ethyl)-3-(6-((E)-(5-methoxy-2-oxoindolin-3-ylidene)methyl)-1H-indazol-3-yl)-N-methylacrylamide 2,2,2-trifluoroacetate], for which the IC50 in experiment [1] and in experiment [3] was less than 5 µM in each case. In experiment [2], the inhibition at 10 µM was more than 50%.
Consider `COc1cc2c(cc1OC)/C(=C\c1ccc3c(/C=C/c4ccncc4)n[nH]c3c1)C(=O)N2` [Example A138, (E)-5,6-dimethoxy-3-((3-((E)-2-(pyridin-4-yl)vinyl)-1H-indazol-6-yl)methylene)indolin-2-one], for which the IC50 in experiment [1], in experiment [2] and in experiment [3] was less than 5 µM in each case.
On to `COC(=O)c1ccc(/C=C/c2n[nH]c3cc(/C=C4\C(=O)Nc5ccccc54)ccc23)cc1` [Example A141, methyl 4-((E)-2-(6-((Z)-(2-oxoindolin-3-ylidene)methyl)-1H-indazol-3-yl)vinyl)benzoate], for which the IC50 in experiment [1] and in experiment [3] was less than 5 µM each time. For the same molecule, the inhibition at 1 µM in experiment [2] is more than 50%.
As to `O=C1Nc2ccccc2/C1=C\c1ccc2c(/C=C/c3ccc(C(=O)O)cc3)n[nH]c2c1` [Example A144, 4-((E)-2-(6-((E)-(2-oxoindolin-3-ylidene)methyl)-1H-indazol-3-yl)vinyl)benzoic acid], the IC50 in experiment [1], in experiment [2] and in experiment [3] was less than 5 µM in each case.
Take `COc1ccc2c(c1)/C(=C\c1ccc3c(/C=C/c4ccc(C(=O)O)cc4)n[nH]c3c1)C(=O)N2` [Example A145, 4-((E)-2-(6-((E)-(5-methoxy-2-oxoindolin-3-ylidene)methyl)-1H-indazol-3-yl)vinyl)benzoic acid]: the IC50 in experiment [1], in experiment [2] and in experiment [3] was less than 5 µM in each case.
On to `COc1ccc2c(c1)/C(=C\c1ccc3c(-c4cnc(N5CCN(C)CC5)nc4)n[nH]c3c1)C(=O)N2` [Example A151, (E)-5-methoxy-3-((3-(2-(4-methylpiperazin-1-yl)pyrimidin-5-yl)-1H-indazol-6-yl)methylene)indolin-2-one], for which the IC50 in experiment [1] was less than 5 µM; in experiment [2], 5 to 50 µM; in experiment [3], less than 5 µM.
